The values below are quoted from earlier work in the CATMoS acute toxicity set (Mansouri et al. 2021).

Values joined by “and” are separate entries in the source; they are usually repeats but may differ in a detail not shown here. Equal entries are not always repeated.

The nature of this data set: rat acute oral toxicity. As to conditions: in vivo.
Consider `O=C(O)C(Cl)(Cl)CCl`, for which the LD50 was 2460 mg/kg. With `CC(CC1CCCCC1)NCCC(c1ccccc1)c1ccccc1` (stereo not given), the LD50 was 1550 mg/kg. Take `Cc1cc(-c2ccc(/N=N/c3c(N)c(C)cc(S(=O)(=O)O)c3N)c(C)c2)ccc1/N=N/c1ccc(O)c(C(=O)O)c1`: the LD50 is 6830 mg/kg.

As to `CCCCC(CC)C(O)C(=O)O` (stereo not given), the LD50 was 3400 mg/kg.

In the case of `CCOC(=O)C(C)N(C(=O)c1ccccc1)c1ccc(Cl)c(Cl)c1` (stereo not given), the LD50 is 1550 mg/kg. `Cc1cc(=O)[nH]c(=O)[nH]1`: the LD50 was 64500 mg/kg. On to `CCc1c(C)[nH]c2c1C(=O)C(CN1CCC3(CC1)OCCO3)CC2` (stereo not given), for which the LD50 was 240 mg/kg. On to `CC(C)=C[C@H]1[C@@H](C(=O)OCc2coc(Cc3ccccc3)c2)C1(C)C`, for which the LD50 was 63 mg/kg.

Consider `COc1c2occc2c(OC)c2c(=O)cc(C)oc12`, for which the LD50 is 68.8 mg/kg. As for `CP(=O)(Oc1ccc([N+](=O)[O-])cc1)c1ccccc1` (stereo not given), the 50% lethal dose (LD50) is 12.5 mg/kg. For the compound `ClCc1ccccc1CCl`, the LD50 is 2260 mg/kg. `CC1=CCC2CC(CC3(CCC(C)C(C(C)C)O3)O2)OC(=O)C2C=C(C)C(O)C3OCC(=CC=CC(C)C1)C23O` (stereo not given): the LD50 is 2470 mg/kg. As for `CNNCc1ccc(C(=O)NC(C)C)cc1`, the LD50 is 570 mg/kg. Take `C=CCOC(=O)Cc1ccccc1`: the LD50 is 650 mg/kg. Turning to `O=C1CCc2cc(C=CCN3CCN(c4ccc(Cl)cc4)CC3)ccc2N1`, the LD50 was 500 mg/kg. As for `CCC(O)CC`, the LD50 is 1870 mg/kg.

In the case of `OCCOCc1ccccc1`, the LD50 was 1190 mg/kg.

In the case of `CCCCCCCCCCCCCCCCCCOC(=O)Cc1ccc(N(CCCl)CCCl)cc1`, the LD50 was 200 mg/kg. Consider `Cc1cccc(C)c1N/N=C(/N)N(C)C`, for which the LD50 is 980 mg/kg.

As to `COc1cc2[nH]c(C)c(CCN3CCN(c4ccccc4)CC3)c2cc1OC`, the LD50 is 1000 mg/kg. For `CCOC(=O)C=CN(C)C`, the LD50 is 4500 mg/kg.

Take `CCN1CCCC(Nc2cc(C)nc(N=C(N)Nc3ccc(Cl)c(Cl)c3)n2)C1` (stereo not given): the LD50 was 1040 mg/kg. For `CC(=O)CCc1ccccc1`, the 50% lethal dose (LD50) is 3200 mg/kg.

In the case of `COc1ccc(CCNCC(O)COc2cccc(C)c2)cc1OC` (stereo not given), the LD50 is 460 mg/kg. As for `CCC(CC)COCCC(=O)O`, the LD50 was 3730 mg/kg. Consider `Cc1ccc(N)cc1Cl`, for which the LD50 is 655 mg/kg.

Turning to `CCOP(=S)(OCC)SCn1nc(Cl)c(Cl)cc1=O`, the LD50 was 1880 mg/kg. Regarding `O=C1CSC2(CCN(CCCN3c4ccccc4Sc4ccc(Cl)cc43)CC2)N1`, the LD50 was 3800 mg/kg. As for `CC(=C(CCO)SSCC1CCCO1)N(C=O)Cc1cnc(C)nc1N` (stereo not given), the LD50 was 2200 mg/kg. Consider `CC(C)(c1ccccc1)c1cc(CN2CCCCC2)c(O)c(CN2CCCCC2)c1`, for which the LD50 is 600 mg/kg. Take `CCCCC(CC)COC(CBr)c1cccc(Cl)c1` (stereo not given): the LD50 is 250 mg/kg.

For the compound `CN(N=O)C(=O)NC(N)=O`, the LD50 was 450 mg/kg. Regarding `C=CCOC(=O)CC1CCCCC1`, the LD50 was 900 mg/kg. In the case of `CN(C)C(=O)C(CCN1CCC(O)(c2ccc(Cl)c(C(F)(F)F)c2)CC1)(c1ccccc1)c1ccccc1`, the LD50 is 86 mg/kg. `CNC(=O)Oc1ccc(C)c(C)c1C`: the LD50 is 318 mg/kg.

Take `CCCN(CCC)C(=O)C(CCC(=O)O)NC(=O)c1ccccc1` (stereo not given): the LD50 is 20000 mg/kg and 8200 mg/kg. As to `Oc1ccc(Cl)cc1-c1ccccc1`, the LD50 was 3500 mg/kg. With `CCN(CC)c1ccc(N)cc1`, the LD50 is 200 mg/kg.

`CC(C)CCCCCc1ccc(O)cc1`: the LD50 was 2150 mg/kg. For the compound `CC(C)(C=O)CO`, the median lethal dose (LD50) is 3200 mg/kg. As for `COc1cc(NC(=O)C(N=Nc2ccc(-c3ccc(N=NC(C(C)=O)C(=O)Nc4ccc(C)cc4C)c(Cl)c3)cc2Cl)C(C)=O)c(OC)cc1Cl` (stereo not given), the LD50 was 2230 mg/kg. Turning to `CCCCCCCCc1ccc(C)cc1O`, the LD50 is 4000 mg/kg.

As to `Cc1cc(N(C)C)nc(Cl)n1`, the LD50 is 1.25 mg/kg. As to `CC(C)(c1ccc(O)cc1)c1ccc(O)cc1`, the LD50 was 1000 mg/kg. For the compound `CCOC(=O)C1(CCCCCCOc2ccc(Cl)cc2)CO1` (stereo not given), the LD50 is 250 mg/kg. `CC1OCCO1`: the LD50 was 2900 mg/kg. `CCOC(=O)[C@H](CCc1ccccc1)N[C@@H](C)C(=O)N1Cc2ccccc2C[C@H]1C(=O)O`: the LD50 was 3540 mg/kg. Regarding `CCC(=O)OCC=Cc1ccccc1`, the LD50 is 3400 mg/kg. For `CN(C)CCCOC1(Cc2ccccc2)CCCCCC1`, the LD50 was 414 mg/kg. As to `COc1cc(OC)cc(OCC(O)CO)c1` (stereo not given), the LD50 is 2100 mg/kg.

On to `N#Cc1ccc(Cl)c([N+](=O)[O-])c1`, for which the LD50 was 2050 mg/kg.

With `CC(=O)OCCC(C)CCC=C(C)C` (stereo not given), the LD50 was 6800 mg/kg. As to `CC(=O)Nc1ccc(OC(=O)c2ccccc2OC(C)=O)cc1`, the LD50 was 3500 mg/kg. In the case of `C=CCN(CC=C)C(=O)CSP(=S)(OCC)OCC`, the LD50 is 48 mg/kg. With `CCCCN(CCCC)C(=O)CF`, the LD50 was 37 mg/kg. On to `O=C(O)c1c(Cl)ccc(Cl)c1O`, for which the LD50 is 1560 mg/kg. For `CN(CCCl)c1ccc(C=CC2=[N+](C)c3ccccc3C2(C)C)cc1`, the LD50 was 2260 mg/kg. Consider `Cc1c(N(C)CS(=O)(=O)O)c(=O)n(-c2ccccc2)n1C`, for which the LD50 is 3000 mg/kg.

As to `CS(=O)(=O)c1ccc(O)cc1`, the LD50 was 3160 mg/kg. `C=CC(=C)CCCC(C)(C)OC(C)=O`: the LD50 was 6300 mg/kg.
